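Cultured in 96-well plates, cells were exposed to test compound for 48 hours across five concentrations. GI50 is the concentration that inhibits growth by half. TGI denotes the concentration required for complete inhibition of growth.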 Where only a bound is given, the exact number is not on record here.

Test systems include RPMI-8226 leukemia; SK-MEL-28 melanoma; IGROV1 ovarian; SK-MEL-2 melanoma; UO-31 renal; OVCAR-4 ovarian; SF-295 CNS; OVCAR-8 ovarian; MOLT-4 leukemia; HOP-92 NSCLC.
Common to all, as to test: growth of human tumour cells (NCI), 48 h

With `S=c1o[nH]c(-c2ccccc2)c1C=Nc1ccccc1`, the TGI in the test with RPMI-8226 leukemia, in the test on SK-MEL-28 melanoma, in the test on IGROV1 ovarian, with SK-MEL-2 melanoma, with UO-31 renal and in the test with OVCAR-4 ovarian was greater than 100 µM throughout. The TGI in the test on SF-295 CNS, with OVCAR-8 ovarian and in the test with MOLT-4 leukemia was greater than 100 µM in each case.

Turning to `COC(=O)CCC(=O)N1C/C(=C\c2ccccc2)C(=O)/C(=C/c2ccccc2)C1`, the TGI in the test with RPMI-8226 leukemia was greater than 100 µM; in the test with SK-MEL-28 melanoma it was 4.24 µM; with IGROV1 ovarian it was 3.94 µM; with UO-31 renal, 3.97 µM; in the test on OVCAR-4 ovarian it was 4.92 µM; in the test with HOP-92 NSCLC, 18.7 µM. The figures for the TGI with SF-295 CNS, in the test with OVCAR-8 ovarian and with MOLT-4 leukemia were 5.87 µM, 14.6 µM and 7.77 µM, respectively.

Regarding `NCCCOc1cc2ccccc2cc1C(=O)Nc1ccc(Cl)cc1OC(=O)c1cc2ccccc2cc1OCCCN`, the GI50 with SK-MEL-28 melanoma is 0.382 µM; in the test on SK-MEL-2 melanoma it was 0.312 µM; with UO-31 renal, 0.179 µM; with OVCAR-4 ovarian, 0.146 µM; in the test on HOP-92 NSCLC, 1.64 µM; in the test on SF-295 CNS it was 0.516 µM. For the same compound, in the test with MOLT-4 leukemia, the GI50 is 0.468 µM. The TGI in the test with SK-MEL-28 melanoma was 0.949 µM; with SK-MEL-2 melanoma, 1.2 µM; in the test with UO-31 renal, 0.433 µM; in the test with OVCAR-4 ovarian it was 0.306 µM; in the test on HOP-92 NSCLC, 3.71 µM; with SF-295 CNS it was 1.44 µM. Besides, in the test with MOLT-4 leukemia, the TGI turned out to be 3.66 µM.

On to `N#Cc1c(-c2ccccc2)cc(-c2ccc(N)cc2)[nH]c1=O`, for which the TGI in the test with RPMI-8226 leukemia, with SK-MEL-28 melanoma, with IGROV1 ovarian, with UO-31 renal, with OVCAR-4 ovarian and in the test with HOP-92 NSCLC was greater than 100 µM throughout. The TGI in the test with SF-295 CNS, with OVCAR-8 ovarian and with MOLT-4 leukemia was greater than 100 µM each time.

In the case of `O=[P+](O)c1ccccn1`, the TGI with RPMI-8226 leukemia, in the test with SK-MEL-28 melanoma, in the test on IGROV1 ovarian, in the test with UO-31 renal, in the test on OVCAR-4 ovarian and with HOP-92 NSCLC was greater than 100 µM each time. Also, the TGI in the test with SF-295 CNS, with OVCAR-8 ovarian and in the test with MOLT-4 leukemia was greater than 100 µM throughout.

Turning to `CCCCC(C)/C=C/C(=O)C1=C(O)/C(=C/C(=O)O)OC1=O` (configuration not stated), the TGI with RPMI-8226 leukemia, with SK-MEL-28 melanoma, in the test with IGROV1 ovarian, with SK-MEL-2 melanoma, in the test on UO-31 renal and in the test on OVCAR-4 ovarian was greater than 100 µM throughout. Moreover, the TGI with SF-295 CNS, in the test with OVCAR-8 ovarian and in the test on MOLT-4 leukemia was greater than 100 µM in each case.

In the case of `Cc1cc(-c2nnc(/C=C/c3ccc4c(c3)OCO4)o2)n[nH]1`, the GI50 was 2.99 µM in the test with RPMI-8226 leukemia; 24.1 µM with SK-MEL-28 melanoma; 9.57 µM in the test with IGROV1 ovarian; 12.1 µM in the test with SK-MEL-2 melanoma; 14.7 µM in the test on UO-31 renal; 23.7 µM in the test with OVCAR-4 ovarian. The GI50 is 7.04 µM with SF-295 CNS, 22.8 µM in the test with OVCAR-8 ovarian and 3.39 µM with MOLT-4 leukemia. Moreover, the TGI in the test on RPMI-8226 leukemia is 32 µM; in the test on SK-MEL-28 melanoma, greater than 50 µM; in the test on IGROV1 ovarian it was greater than 50 µM; in the test on SK-MEL-2 melanoma, greater than 50 µM; with UO-31 renal, greater than 50 µM; in the test on OVCAR-4 ovarian it was greater than 50 µM. Besides, the TGI in the test with SF-295 CNS was 38 µM; with OVCAR-8 ovarian, greater than 50 µM; with MOLT-4 leukemia, 39.5 µM.

Take `Cc1cccc(C)c1NC(=O)CCC/C(CC(=O)c1ccc(F)cc1)=N\NC(=O)C(=O)NN`: the TGI with RPMI-8226 leukemia, in the test with SK-MEL-28 melanoma, in the test on IGROV1 ovarian, with SK-MEL-2 melanoma, in the test on UO-31 renal and with OVCAR-4 ovarian was greater than 100 µM throughout. The TGI with SF-295 CNS, in the test with OVCAR-8 ovarian and with MOLT-4 leukemia was greater than 100 µM each time.

Take `O=C1C(=C2CCCC2)CCC1CN1CCCCC1` (configuration not stated): the TGI is 31.3 µM in the test with SK-MEL-28 melanoma; 36.3 µM with IGROV1 ovarian; 30.7 µM with SK-MEL-2 melanoma; greater than 100 µM in the test on UO-31 renal; 30.3 µM in the test with OVCAR-4 ovarian; 37.7 µM with HOP-92 NSCLC. Further, the TGI in the test on SF-295 CNS is greater than 100 µM; in the test on OVCAR-8 ovarian, 43.4 µM; in the test with MOLT-4 leukemia it was 41.9 µM.

In the case of `CC1(C)CCCC2(C)C3C(O)CC2(C)C(O)C31` (configuration not stated), the TGI with SK-MEL-28 melanoma, in the test on IGROV1 ovarian, with SK-MEL-2 melanoma, with UO-31 renal, with OVCAR-4 ovarian and in the test with SF-295 CNS was greater than 100 µM throughout. The TGI in the test with OVCAR-8 ovarian and in the test with MOLT-4 leukemia was greater than 100 µM in each case.

Consider `Nc1c(C(=O)Nc2ccccn2)sc2nc3c(cc12)C(O)CCC3` (configuration not stated), for which the GI50 with RPMI-8226 leukemia was 1.84 µM; with SK-MEL-28 melanoma, greater than 50 µM; in the test on IGROV1 ovarian it was 3.27 µM; with SK-MEL-2 melanoma, 1.34 µM; with UO-31 renal, 3.68 µM; in the test with OVCAR-4 ovarian, greater than 50 µM. The GI50 with SF-295 CNS was 1.74 µM; in the test with OVCAR-8 ovarian it was 2.19 µM; with MOLT-4 leukemia it was 2.08 µM. For the same compound, the TGI with RPMI-8226 leukemia, in the test on SK-MEL-28 melanoma, with IGROV1 ovarian, in the test with SK-MEL-2 melanoma, in the test with UO-31 renal and in the test on OVCAR-4 ovarian was greater than 50 µM each time. The TGI with SF-295 CNS, with OVCAR-8 ovarian and with MOLT-4 leukemia was greater than 50 µM throughout.

Turning to `CNC(=O)c1cc(Oc2cccc3nc(NC(=O)Nc4cc(C(F)(F)F)cc(C(F)(F)F)c4)ccc23)ccn1`, the GI50 in the test with SK-MEL-28 melanoma was 4.67 µM; in the test on SK-MEL-2 melanoma, 12.7 µM; in the test with UO-31 renal it was 4.91 µM; in the test on OVCAR-4 ovarian it was 2.37 µM; in the test with HOP-92 NSCLC it was 2.5 µM; in the test on SF-295 CNS it was 3.69 µM. Also, the GI50 in the test with OVCAR-8 ovarian was 5.09 µM; with MOLT-4 leukemia, 35.9 µM. For the same compound, the TGI is greater than 100 µM with SK-MEL-28 melanoma; 25.6 µM in the test with SK-MEL-2 melanoma; 40.5 µM with UO-31 renal; 7.51 µM in the test on OVCAR-4 ovarian; 6.27 µM in the test with HOP-92 NSCLC; 15.2 µM in the test on SF-295 CNS. Besides, the figures for the TGI with OVCAR-8 ovarian and in the test with MOLT-4 leukemia were 26.8 µM and greater than 100 µM, respectively.

(Values after PubChem BioAssay (NCI).)
